Values of other authors in article PMC5548178 (Pharmacotherapy, 2016).
Like-named read-outs stand apart in the source and are kept apart here.

What was measured:
[1] = reported variability in healthy volunteers
[2] = single-dose gemfibrozil 600 mg after 2 weeks of lopinavir 400 mg–ritonavir 100 mg twice daily; healthy volunteers

AUC (mean ± SD) [1]	Substrate for the efflux transporter P-glycoprotein (P-glycoprotein (P-gp))	Reduction in gemfibrozil exposure (AUC0-∞) [2]	Structure (SMILES)	Mean change in triglyceride levels (triglyceride levels; HIV-infected patients receiving NNRTI-based cART)	Mean change in triglyceride levels (triglyceride levels; non–HIV-infected controls)
92000 ± 26000 ng·h/mL	not a substrate	–	CC(C)(Oc1ccc(C(=O)c2ccc(Cl)cc2)cc1)C(=O)O [fenofibric acid]	–	–
–	–	41%	Cc1ccc(C)c(OCCCC(C)(C)C(=O)O)c1 [gemfibrozil]	–60.3%	–59.3%
